Like-named read-outs stand apart in the source and are kept apart here.
Key:
SARS-Cov-2 3CLpro = SARS-Cov-2 3CLpro (Severe acute respiratory syndrome coronavirus 2, UniProt P0DTD1); assay: biochemical; conditions: Table A, read-out: SARS-Cov-2 (IC50)
[1] = tested on: SARS-CoV-2 B.1.1.7 lineage; assay: microbe, parasite or virus in culture; assay type: cell-based; conditions: Severe acute respiratory syndrome coronavirus 2, Table C, SARS-CoV-2 B.1.1.7 in A549-dual_ACE2_TMPRSS2 cells, read-out: A549-dual_ACE2_TMPRSS2 (EC50)
in vitro = conditions: human

| Structure (SMILES) | IC50 (SARS-Cov-2 3CLpro; cells given as a bound) [nM] | IC50 (SARS-Cov-2 3CLpro; class symbols) [nM] | EC50 ([1]; class symbols) [nM] | CC50 (in vitro) [nM] | EC50 ([1]; cells given as a bound) [nM] |
| --- | --- | --- | --- | --- | --- |
| CN(C(=O)[C@H](CC1CC1)NC(=O)C(F)(F)F)[C@@H](CC1CC1)C(=O)N1C[C@@]2(C[C@@H]1C#N)C(=O)NCc1ccccc12 (single isomer, unassigned) [Compound 123] | > 2000 |  |  |  |  |
| CC(C)C[C@@H](C(=O)N1C[C@@]2(CCCNC2=O)C[C@H]1C#N)N(C)C(=O)[C@H](C)NC(=O)C(F)(F)F [Compound 9, (S)—N—((S)-1-((3S,5R)-3-cyano-6-oxo-2,7-diazaspiro[4.5]decan-2-yl)-4-methyl-1-oxopentan-2-yl)-N-methyl-2-(2,2,2-trifluoroacetamido)propanamide] |  | 20000 to 100000 | 1000 to 10000 | > 1000 |  |
| CC(C)C[C@@H](C(=O)N1C[C@]2(C[C@H]1C#N)C(=O)NC(=O)N2C)N(C)C(=O)[C@H](C)NC(=O)C(F)(F)F [Compound 10, (S)—N—((S)-1-((5R,8S)-8-cyano-1-methyl-2,4-dioxo-1,3,7-triazaspiro[4.4]nonan-7-yl)-4-methyl-1-oxopentan-2-yl)-N-methyl-2-(2,2,2-trifluoroacetamido)propanamide] |  | 200 to 2000 | 1000 to 10000 | > 1000 |  |
| CC(C)C[C@@H](C(=O)N1C[C@@]2(C[C@H]1C#N)Oc1ccc(F)cc1NC2=O)N(C)C(=O)[C@H](C)NC(=O)C(F)(F)F [Compound 14a, (S)—N—((S)-1-((2R,5'S)-5′-cyano-6-fluoro-3-oxo-3,4-dihydrospiro[benzo[b][1,4]oxazine-2,3′-pyrrolidin]-1′-yl)-4-methyl-1-oxopentan-2-yl)-N-methyl-2-(2,2,2-trifluoroacetamido)propanamide] |  |  | 100 to 1000 | > 1000 |  |
| CC(C)C[C@H](C(=O)N1C[C@@]2(C[C@H]1C#N)Oc1ccc(F)cc1NC2=O)N(C)C(=O)[C@H](C)NC(=O)C(F)(F)F [Compound 14b, (S)—N—((R)-1-((2R,5'S)-5′-cyano-6-fluoro-3-oxo-3,4-dihydrospiro[benzo[b][1,4]oxazine-2,3′-pyrrolidin]-1′-yl)-4-methyl-1-oxopentan-2-yl)-N-methyl-2-(2,2,2-trifluoroacetamido)propanamide] |  |  |  | > 1000 | > 1000 |
| C[C@H](NC(=O)C(F)(F)F)C(=O)N[C@@H](CC(C)(C)C)C(=O)N1C[C@@]2(C[C@H]1C#N)Oc1cc(F)cc(F)c1NC2=O [Compound 68] |  | 20 to 200 |  | > 1000 | > 1000 |
| [2H]C([2H])([2H])N(C(=O)[C@H](C)NC(=O)C(F)(F)F)[C@@H](CC(C)C)C(=O)N1C[C@@]2(C[C@H]1C#N)Oc1cc(F)cc(F)c1NC2=O [Compound 109] |  | < 20 | 100 to 1000 | > 1000 |  |
| CN(C(=O)[C@@H](CC1CCCCC1)NC(=O)C(F)(F)F)[C@@H](CC1CC1)C(=O)N1C[C@@]2(C[C@H]1C#N)Oc1cccnc1NC2=O [Compound 145] |  | < 20 | < 100 | > 1000 |  |
| CN(C(=O)[C@@H](Cc1ccncc1)NC(=O)C(F)(F)F)[C@@H](CC1CC1)C(=O)N1C[C@@]2(C[C@H]1C#N)Oc1cccnc1NC2=O [Compound 148] |  | < 20 |  | > 1000 | > 1000 |
| CN(C(=O)[C@@H](Cc1cccnc1)NC(=O)C(F)(F)F)[C@@H](CC1CC1)C(=O)N1C[C@@]2(C[C@H]1C#N)Oc1cccnc1NC2=O [Compound 151] |  | < 20 | 100 to 1000 | > 1000 |  |
| COc1cccc(C[C@@H](NC(=O)C(F)(F)F)C(=O)N(C)[C@@H](CC2CC2)C(=O)N2C[C@@]3(C[C@H]2C#N)Oc2cccnc2NC3=O)c1 [Compound 152] |  | < 20 | < 100 | > 1000 |  |
| CN(C(=O)[C@@H]1CC[C@@H](c2ccccc2)N1C)[C@@H](CC1CC1)C(=O)N1C[C@@]2(C[C@H]1C#N)Oc1cc(F)cc(F)c1NC2=O [Compound 153] |  | 20 to 200 | 100 to 1000 | > 1000 |  |
| CN(C(=O)[C@H](CC1CC1)NC(=O)c1ccc(F)cc1)[C@@H](CC1CC1)C(=O)N1C[C@@]2(C[C@H]1C#N)Oc1ccccc1CNC2=O [Compound 161] |  | < 20 | < 100 | > 1000 |  |
| CN(C(=O)[C@H](CC1CC1)NC(=O)C(F)(F)C(F)(F)F)[C@@H](CC1CC1)C(=O)N1C[C@@]2(C[C@H]1C#N)Oc1ccccc1CNC2=O [Compound 162] |  | < 20 | < 100 | > 1000 |  |
| C[C@H](NC(=O)C(F)(F)F)C(=O)N[C@@H](CC1CC1)C(=O)N1C[C@@]2(C[C@H]1C#N)Oc1cccnc1NC2=O [Compound 180] |  | 200 to 2000 |  | > 1000 | > 1000 |
| CN(C(=O)c1nnc(-c2ccccc2)[nH]1)[C@@H](CC1CC1)C(=O)N1C[C@@]2(C[C@H]1C#N)Oc1cccnc1NC2=O [Compound 210] |  | 200 to 2000 |  | > 1000 | > 1000 |
| CN(C(=O)c1cnc(-c2ccccc2)[nH]1)[C@@H](CC1CC1)C(=O)N1C[C@@]2(C[C@H]1C#N)Oc1cccnc1NC2=O [Compound 211] |  | 20 to 200 | 100 to 1000 | > 1000 |  |

| Structure (SMILES) | IC50 (SARS-Cov-2 3CLpro; cells given as a bound) [nM] | IC50 (SARS-Cov-2 3CLpro; class symbols) [nM] | EC50 ([1]; class symbols) [nM] | CC50 (in vitro) [nM] | EC50 ([1]; cells given as a bound) [nM] |
| --- | --- | --- | --- | --- | --- |
| C[C@H](NC(=O)C1(C)CCC1)C(=O)N(C)[C@@H](CC1CC1)C(=O)N1C[C@@]2(C[C@H]1C#N)Oc1cccnc1NC2=O [Compound 212] |  | < 20 | 100 to 1000 | > 1000 |  |
| C[C@H](NC(=O)C12CC(C1)C2)C(=O)N(C)[C@@H](CC1CC1)C(=O)N1C[C@@]2(C[C@H]1C#N)Oc1cccnc1NC2=O [Compound 216] |  | < 20 | 100 to 1000 | > 1000 |  |
| CN(C(=O)[C@@H](NC(=O)C(F)(F)F)C12CC(C1)C2)[C@@H](CC1CC1)C(=O)N1C[C@@]2(C[C@H]1C#N)Oc1cccnc1NC2=O [Compound 217] |  | < 20 | 100 to 1000 | > 1000 |  |
| CN(C(=O)[C@@H](NC(=O)C(F)(F)F)C1CCCC1)[C@@H](CC1CC1)C(=O)N1C[C@@]2(C[C@H]1C#N)Oc1cccnc1NC2=O [Compound 218] |  | < 20 | < 100 | > 1000 |  |
| CC([C@H](NC(=O)C(F)(F)F)C(=O)N(C)[C@@H](CC1CC1)C(=O)N1C[C@@]2(C[C@H]1C#N)Oc1cccnc1NC2=O)C(C)(C)C (stereo partly drawn) [Compound 234] |  | < 20 |  |  |  |
| C[C@H](NC(=O)C(F)(F)F)C(=O)N(C)[C@@H](CC1CC1)C(=O)N1C[C@@]2(C[C@H]1C#N)Oc1c(cccc1OC(F)(F)F)NC2=O [Compound 235] |  | < 20 |  |  |  |
| CN(C(=O)[C@H](CCCN)NC(=O)C(F)(F)F)[C@@H](CC1CC1)C(=O)N1C[C@@]2(C[C@H]1C#N)Oc1cccnc1NC2=O [Compound 236] |  | < 20 |  |  |  |
| CN(C(=O)c1cc2ccccc2c(=O)[nH]1)[C@@H](CC1CC1)C(=O)N1C[C@@]2(C[C@H]1C#N)Oc1cccnc1NC2=O [Compound 237] |  | 200 to 2000 |  |  |  |
| CN(C(=O)[C@H](CC1CC1)NC(=O)C(F)(F)Cl)[C@@H](CC1CC1)C(=O)N1C[C@@]2(C[C@H]1C#N)Oc1ncccc1NC2=O [Compound 238] |  | < 20 |  |  |  |
| CO[C@H](C)[C@H](NC(=O)C(F)(F)F)C(=O)N(C)[C@@H](CC1CC1)C(=O)N1C[C@@]2(C[C@H]1C#N)Oc1cccnc1NC2=O [Compound 239] |  | < 20 |  |  |  |
| CO[C@H](C)[C@H](NC(=O)C(F)(F)F)C(=O)N(C)[C@@H](CC1CC1)C(=O)N1C[C@@]2(C[C@H]1C#N)Oc1ncccc1NC2=O [Compound 240] |  | < 20 |  |  |  |
| CC(C)C[C@@H](C(=O)N1CC2(C[C@H]1C#N)C(=O)Nc1ccnn12)N(C)C(=O)[C@H](C)NC(=O)C(F)(F)F (stereo partly drawn) [Example 7, (2S)—N-[(2S)-1-[(5'S)-5′-cyano-2-oxo-1H-spiro[pyrazolo[1,5-a]imidazole-3,3′-pyrrolidin]-1′-yl]-4-methyl-1-oxopentan-2-yl]-N-methyl-2-(2,2,2-trifluoroacetamido)propanamide] |  | 20 to 200 | 1000 to 10000 | > 1000 |  |
| CC(C)C[C@@H](C(=O)N1C[C@]2(CC(C(C)C)NC2=O)C[C@H]1C#N)N(C)C(=O)[C@H](C)NC(=O)C(F)(F)F (stereo partly drawn) [Example 38] |  | < 20 | 100 to 1000 | > 1000 |  |
| CN(C(=O)[C@H](CC1CC1)NC(=O)C(F)(F)F)[C@@H](CC1CC1)C(=O)N1C[C@@]2(C[C@H]1C#N)Sc1ccccc1NC2=O [Example 39, (S)—N—((S)-1-((2R,5'S)-5′-cyano-3-oxo-3,4-dihydrospiro[benzo[b][1,4]thiazine-2,3′-pyrrolidin]-1′-yl)-3-cyclopropyl-1-oxopropan-2-yl)-3-cyclopropyl-N-methyl-2-(2,2,2-trifluoroacetamido)propanamide] |  | < 20 | < 100 | > 1000 |  |
| CC(C)C[C@@H](C(=O)N1CC2(C[C@H]1C#N)Cn1nccc1NC2=O)N(C)C(=O)[C@H](C)NC(=O)C(F)(F)F (stereo partly drawn) [Example 40, (2S)—N-((2S)-1-((5'S)-5′-cyano-5-oxo-4,5-dihydro-7H-spiro[pyrazolo[1,5-a]pyrimidine-6,3′-pyrrolidin]-1′-yl)-4-methyl-1-oxopentan-2-yl)-N-methyl-2-(2,2,2-trifluoroacetamido)propanamide] |  | 200 to 2000 |  | > 1000 | > 1000 |
| CC(C)C[C@@H](C(=O)N1CC2(C[C@H]1C#N)Cn1nc(Br)cc1NC2=O)N(C)C(=O)[C@H](C)NC(=O)C(F)(F)F (stereo partly drawn) [Example 41, (2S)—N-((2S)-1-((5'S)-2-bromo-5′-cyano-5-oxo-4,5-dihydro-7H-spiro[pyrazolo[1,5-a]pyrimidine-6,3′-pyrrolidin]-1′-yl)-4-methyl-1-oxopentan-2-yl)-N-methyl-2-(2,2,2-trifluoroacetamido)propanamide] |  | 200 to 2000 |  | > 1000 | > 1000 |

Source: patent US20240199647A1, “ANTI-VIRAL COMPOUNDS” (Aligos Therapeutics, Inc., priority 2022, published 2024)
